Measured values taken from ChEMBL document CHEMBL1122086, “Comparison of the inhibition of Escherichia coli and Lactobacillus casei dihydrofolate reductase by 2,4-diamino-5-(substituted-benzyl)pyrimidines: quantitative structure-activity relationships, X-ray crystallography, and computer graphics in structure-activity analysis” (J Med Chem, 1982).

Tests used:
[1] = molecular target: T1, Dihydrofolate reductase (Escherichia coli) (UniProt P0ABQ4)
T1 sequence (whole entry): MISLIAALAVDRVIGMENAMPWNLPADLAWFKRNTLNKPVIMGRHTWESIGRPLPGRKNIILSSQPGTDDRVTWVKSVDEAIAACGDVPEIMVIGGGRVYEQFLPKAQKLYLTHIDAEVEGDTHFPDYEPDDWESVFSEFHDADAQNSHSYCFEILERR
Description: Inhibitory activity against dihydrofolate reductase (DHFR) from Escherichia coli (expressed as log 1/Kiapp)

[2] = molecular target: Dihydrofolate reductase (Lactobacillus casei) (UniProt P00381); details: Lacticaseibacillus casei
Chain of Dihydrofolate reductase (Lactobacillus casei) (P00381 whole entry): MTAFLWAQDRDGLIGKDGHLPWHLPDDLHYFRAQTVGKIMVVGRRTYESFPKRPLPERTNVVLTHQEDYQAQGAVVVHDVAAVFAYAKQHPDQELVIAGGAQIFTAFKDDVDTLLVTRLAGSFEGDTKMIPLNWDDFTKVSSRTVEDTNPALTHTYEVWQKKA
Description: Inhibitory activity against dihydrofolate reductase (DHFR) from Lactobacillus casei (expressed as log 1/Kiapp)

| SMILES | Log 1/Ki app [1] | Log 1/Ki app [2] |
| --- | --- | --- |
| CN(C)c1ccc(Cc2cnc(N)nc2N)cc1 | – | 6.17 |
| CCCCOCc1cccc(Cc2cnc(N)nc2N)c1 | – | 5.49 |
| COCCOc1cccc(Cc2cnc(N)nc2N)c1 | – | 6.12 |
| NC(=O)COc1cccc(Cc2cnc(N)nc2N)c1 | – | 5.96 |
| COCCOc1ccc(Cc2cnc(N)nc2N)cc1 | – | 6.05 |
| Nc1ncc(Cc2ccc(OC(F)(F)F)cc2)c(N)n1 | 6.57 | 6.3 |
| Nc1ncc(Cc2cc(CO)cc(CO)c2)c(N)n1 | – | 5.73 |
| Nc1ncc(Cc2ccc(Br)cc2)c(N)n1 | – | 6.21 |
| COCCOc1c(OC)cc(Cc2cnc(N)nc2N)cc1OC | – | 6.26 |
| CCCCOc1ccc(Cc2cnc(N)nc2N)cc1 | – | 6.37 |
| COCCOc1ccc(Cc2cnc(N)nc2N)cc1OCCOC | – | 6.51 |
| CC(=O)Nc1ccc(Cc2cnc(N)nc2N)cc1[N+](=O)[O-] | 6.97 | 6 |
| CC(=O)Nc1ccc(Cc2cnc(N)nc2N)cc1 | – | 6.05 |
| Nc1ccc(Cc2cnc(N)nc2N)cc1 | – | 5.47 |
| Nc1ncc(Cc2ccc(O)c(O)c2)c(N)n1 | – | 5.84 |
| Nc1ncc(Cc2cc(O)cc(O)c2)c(N)n1 | – | 3.38 |
| CCCCCCCOc1ccc(Cc2cnc(N)nc2N)cc1 | – | 5.36 |
| Nc1ncc(Cc2ccc([N+](=O)[O-])cc2)c(N)n1 | 6.2 | 6 |
| Cc1ccc(Cc2cnc(N)nc2N)cc1 | – | 5.83 |
| CCCCCCOc1ccc(Cc2cnc(N)nc2N)cc1 | – | 5.73 |
| COc1ccc(Cc2cnc(N)nc2N)cc1OC | – | 6.92 |
| Nc1ncc(Cc2ccc(F)cc2)c(N)n1 | – | 5.67 |
| COc1ccc(Cc2cnc(N)nc2N)cc1C(F)(F)F | 7.69 | 7.3 |

More lines, now with the values ahead:

| Log 1/Ki app [1] | Log 1/Ki app [2] | SMILES |
| --- | --- | --- |
| 6.92 | 5.92 | CS(=O)(=O)Oc1cccc(Cc2cnc(N)nc2N)c1 |
| – | 6.23 | Nc1ncc(Cc2cccc(Br)c2)c(N)n1 |
| – | 5.38 | Nc1ncc(Cc2cccc(F)c2)c(N)n1 |
| – | 5.64 | COCc1cccc(Cc2cnc(N)nc2N)c1 |
| – | 5.78 | Cc1cccc(Cc2cnc(N)nc2N)c1 |
| – | 6.19 | Nc1ncc(Cc2ccc(Cl)cc2)c(N)n1 |
| – | 5.82 | Nc1ncc(Cc2cccc(O)c2)c(N)n1 |
| – | 5.67 | Nc1ncc(Cc2cccc(CO)c2)c(N)n1 |
| – | 5.9 | Nc1ncc(Cc2cccc(Cl)c2)c(N)n1 |
| – | 5.2 | Nc1ncc(Cc2ccccc2)c(N)n1 |
| – | 6.16 | Nc1ncc(Cc2cccc(C(F)(F)F)c2)c(N)n1 |
| – | 6.67 | Nc1ncc(Cc2cccc(I)c2)c(N)n1 |
